Drawing on patent publication US20240182481A1 (Tango Therapeutics, Inc., priority 2021, published 2024), this text covers IC50 for four compounds.

Assay [1] relates to MDA-MB-436 (BRCA1 mutant) cell line. Put plainly: Viability assay in BRCA1 mutant cell line MDA-MB-436. In kind it is cell-based. The note with it: Homo sapiens, MDA-MB-436, viability, BRCA1 mutant MDA-MB-436; read-out: MDA-MB-436 rel IC50. The source says: (§1) Table 1 also indicates IC50 values in a viability assay for a non-isogenic pair of BRCA1 mutant (column 5—MDA-MB-436) and BRCA1 WT (column 6—HCC1954) cell lines. These values indicate the effect of treatment with compound on cell survival.

For assay [2], the target named is USP1-UAF1 (Homo sapiens, UniProt O94782). Put plainly: Ubiquitin Rhodamine assay for USP1-UAF1 activity. In kind it is biochemical. On the procedure: Certain compounds of the disclosure were assessed for USP1-UAF1 activity in a Ubiquitin Rhodamine assay as described in Example 135.
Assay [3] relates to HCC1954 (BRCA1 WT) cell line. Put plainly: Viability assay in BRCA1 WT cell line HCC1954. In kind it is cell-based. The note with it: Homo sapiens, read-out: HCC 1954 IC50 rel IC50.
Description: as §1

In assay [4] the test system is monoubiquitinated PCNA. Put plainly: AlphaLISA assay measuring monoubiquitinated PCNA in MDA-MB-436. In kind it is cell-based. Conditions: Homo sapiens, read-out: Alpha LISA IC50. The source says: Table 1 also indicates IC50 values for exemplary compounds in an AlphaLISA assay measuring monoubiquitinated PCNA in a BRCA1 mutant cell line (MDA-MB-436; column 7).

Sequence of USP1-UAF1 (O94782 whole entry): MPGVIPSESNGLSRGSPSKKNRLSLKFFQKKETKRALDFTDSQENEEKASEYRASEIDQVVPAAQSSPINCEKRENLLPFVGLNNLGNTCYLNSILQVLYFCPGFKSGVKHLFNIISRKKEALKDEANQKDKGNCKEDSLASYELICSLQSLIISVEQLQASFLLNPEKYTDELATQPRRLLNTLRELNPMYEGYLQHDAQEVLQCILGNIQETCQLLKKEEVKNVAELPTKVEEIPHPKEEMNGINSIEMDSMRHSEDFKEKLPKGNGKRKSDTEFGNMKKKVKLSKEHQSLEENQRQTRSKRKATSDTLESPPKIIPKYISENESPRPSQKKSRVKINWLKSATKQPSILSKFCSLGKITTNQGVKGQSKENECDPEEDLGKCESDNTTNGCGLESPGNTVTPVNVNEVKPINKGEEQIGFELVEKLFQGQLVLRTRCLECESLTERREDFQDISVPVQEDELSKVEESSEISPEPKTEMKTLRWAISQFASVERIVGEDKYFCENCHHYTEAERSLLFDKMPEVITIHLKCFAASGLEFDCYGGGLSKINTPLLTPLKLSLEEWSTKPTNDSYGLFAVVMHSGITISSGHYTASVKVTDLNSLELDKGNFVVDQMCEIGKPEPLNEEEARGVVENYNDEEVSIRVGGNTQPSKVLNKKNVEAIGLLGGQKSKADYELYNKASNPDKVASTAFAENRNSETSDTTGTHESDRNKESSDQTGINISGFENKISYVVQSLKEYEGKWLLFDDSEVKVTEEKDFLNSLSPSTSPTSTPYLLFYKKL
Sequence of USP1-UAF1 (Q8TAF3 whole entry partner): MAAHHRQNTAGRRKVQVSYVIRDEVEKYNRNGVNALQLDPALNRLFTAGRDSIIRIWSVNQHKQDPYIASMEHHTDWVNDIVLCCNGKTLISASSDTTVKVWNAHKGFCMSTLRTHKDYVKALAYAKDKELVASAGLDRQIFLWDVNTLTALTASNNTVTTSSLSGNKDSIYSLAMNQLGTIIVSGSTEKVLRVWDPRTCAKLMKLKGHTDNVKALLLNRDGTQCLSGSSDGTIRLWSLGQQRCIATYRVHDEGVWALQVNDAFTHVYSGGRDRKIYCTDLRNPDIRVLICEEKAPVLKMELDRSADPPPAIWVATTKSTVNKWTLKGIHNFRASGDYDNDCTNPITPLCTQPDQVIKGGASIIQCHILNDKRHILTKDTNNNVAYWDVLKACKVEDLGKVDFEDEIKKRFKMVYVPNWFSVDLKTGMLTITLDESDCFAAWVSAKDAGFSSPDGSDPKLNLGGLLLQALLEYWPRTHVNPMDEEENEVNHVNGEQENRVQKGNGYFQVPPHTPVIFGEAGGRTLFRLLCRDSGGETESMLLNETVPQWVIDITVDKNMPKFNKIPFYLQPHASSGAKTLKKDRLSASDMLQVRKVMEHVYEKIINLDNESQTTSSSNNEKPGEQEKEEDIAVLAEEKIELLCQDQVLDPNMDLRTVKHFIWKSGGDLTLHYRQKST

`CN(C)c1ncccc1-c1ncc2[nH]cc(Cc3ccc(-c4nc(C(F)(F)F)cn4C)cc3)c2n1` [Compound 29, N,N-dimethyl-3-[7-[[4-[1-methyl-4-(trifluoromethyl)imidazol-2-yl]phenyl]methyl]-5H-pyrrolo[3,2-d]pyrimidin-2-yl]pyridin-2-amine]: the IC50 – broadly, the concentration that gives 50% inhibition – was 250 to 10000 nM in assay [1], 100 to 10000 nM in assay [2], at least 10000 nM in assay [3] and 250 to 10000 nM in assay [4].

With `CNCc1[nH]c2cnc(-c3c(OC)ncnc3C3CC3)nc2c1Cc1ccc(-c2nc(C(F)(F)F)cn2C)cc1` [Compound 159, 1-[2-(4-cyclopropyl-6-methoxy-pyrimidin-5-yl)-7-[[4-[1-methyl-4-(trifluoromethyl)imidazol-2-yl]phenyl]methyl]-5H-pyrrolo[3,2-d]pyrimidin-6-yl]-N-methyl-methanamine], the IC50 in assay [1] lay within 100 to 250 nM; in assay [2], 100 to 10000 nM; in assay [3], 250 to 10000 nM; in assay [4], 100 to 250 nM.

Consider `CC(C)c1ccccc1-c1ncc2[nH]cc(C(C)(O)c3ccc(-c4nc(C(F)(F)F)cn4C)cc3)c2n1` (stereo not shown) [Compound 48, 1-[2-(2-isopropylphenyl)-5H-pyrrolo[3,2-d]pyrimidin-7-yl]-1-[4-[1-methyl-4-(trifluoromethyl)imidazol-2-yl]phenyl]ethanol], for which the IC50 is below 100 nM in assay [1], below 30 nM in assay [2], at least 10000 nM in assay [3] and below 100 nM in assay [4].

Take `CC(C)c1ccccc1-c1ncc2[nH]cc([C@@H](C)c3ccc(-c4nc(C(F)(F)F)cn4C)cc3)c2n1` (single isomer, unassigned) [Compound 82]: the IC50 was below 100 nM in assay [1], below 30 nM in assay [2], 250 to 10000 nM in assay [3] and below 100 nM in assay [4].
